In patent publication US20260028354A1, “TETRAHYDRONAPHTHALENE DERIVATIVES AS ESTROGEN RECEPTOR DEGRADERS” (REGENT OF THE UNIVERSITY OF MICHIGAN, priority 2022, published 2026):
Where two headings read alike, the source gives them in different places.

Experiments:
[1] = Cell growth assay (WST-8) for "B" compounds; format: cell-based; details: T47D, read-out: Cell growth Inhibition in T47D cell line IC50
Summary of the method: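 Cells seeded at 1500/well overnight, then exposed to compounds for 4 days. 10% WST-8 added for 2.5 h at 37 °C and absorbance read at 450 nm. Growth given as absorbance relative to vehicle control, from three repeats.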

ER = ER (Homo sapiens (Human), UniProt P03372); test: In-cell western blot analysis of ER for "B" compounds; format: cell-based; details: 16 hours, read-out: ICW DC50
ER, sequence (P03372 whole entry): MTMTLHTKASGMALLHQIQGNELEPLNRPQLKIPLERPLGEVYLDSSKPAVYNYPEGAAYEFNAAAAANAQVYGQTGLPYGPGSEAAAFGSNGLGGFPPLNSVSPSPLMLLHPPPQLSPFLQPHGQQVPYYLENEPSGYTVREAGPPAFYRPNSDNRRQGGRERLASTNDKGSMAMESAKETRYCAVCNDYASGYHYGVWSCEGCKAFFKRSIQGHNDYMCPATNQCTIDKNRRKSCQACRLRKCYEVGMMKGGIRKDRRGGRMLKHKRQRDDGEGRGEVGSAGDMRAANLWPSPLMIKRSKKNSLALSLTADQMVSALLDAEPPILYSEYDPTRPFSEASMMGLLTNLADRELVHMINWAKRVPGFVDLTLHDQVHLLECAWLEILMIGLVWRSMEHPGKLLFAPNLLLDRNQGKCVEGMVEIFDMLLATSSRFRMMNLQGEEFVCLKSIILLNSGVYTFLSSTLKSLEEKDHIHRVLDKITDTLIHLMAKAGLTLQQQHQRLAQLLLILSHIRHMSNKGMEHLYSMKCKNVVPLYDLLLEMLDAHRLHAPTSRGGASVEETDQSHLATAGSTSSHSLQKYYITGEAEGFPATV
Summary of the method: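 In-cell western: fixed cells stained with primary antibodies (2 h, RT), then anti-rabbit-680 and anti-mouse-800 secondaries (1:1000, 1 h, RT), imaged on a LI-COR plate reader. Relative ER level in treated wells expressed against untreated and DMSO-treated wells set as 100%.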

| Structure (SMILES) | DC50 (ER) [nM] | IC50 ([1]; T47D cell line) [nM] | IC50 [1] [nM] |
| --- | --- | --- | --- |
| O=C1CCC(N2Cc3cc4c(cc3C2=O)OC[C@@H]2CN(CC3CC5(CCN(c6ccc([C@@H]7c8ccc(O)cc8CC[C@@H]7c7ccccc7)cc6)C5)C3)CCN42)C(=O)N1 (stereo partly drawn) [Compound B233, 3-((S)-3-((6-(4-((1R,2S)-6-hydroxy-2-phenyl-1,2,3,4-tetrahydronaphthalen-1-yl)phenyl)-6-azaspiro[3.4]octan-2-yl)methyl)-8-oxo-1,2,3,4,4a,5,8,10-octahydro-9H-pyrazino[1′,2′:4,5][1,4]oxazino[2,3-f]isoindol-9-yl)piperidine-2,6-dione] | > 100 | 1 to 10 |  |
| O=C1CCC(N2Cc3c(ccc4c3OCCC43CCN(CC4CCN(c5ccc([C@@H]6c7ccc(O)cc7CC[C@@H]6c6ccccc6)cc5)CC4)CC3)C2=O)C(=O)N1 (stereo partly drawn) [Compound B165, 3-(1-((1-(4-((1R,2S)-6-hydroxy-2-phenyl-1,2,3,4-tetrahydronaphthalen-1-yl)phenyl)piperidin-4-yl)methyl)-7′-oxo-2′,3′,7′,9′-tetrahydro-8′H-spiro[piperidine-4,4′-pyrano[2,3-e]isoindol]-8′-yl)piperidine-2,6-dione] | > 100 |  | < 1 |
| O=C1CCC(N2Cc3c(ccc4c3OCC43CCN(CC4CCC5(CCN(c6ccc([C@@H]7c8ccc(O)cc8CC[C@@H]7c7ccccc7)cc6)CC5)O4)CC3)C2=O)C(=O)N1 (stereo partly drawn) [Compound B178, 3-(1′-((8-(4-((1R,2S)-6-hydroxy-2-phenyl-1,2,3,4-tetrahydronaphthalen-1-yl)phenyl)-1-oxa-8-azaspiro[4.5]decan-2-yl)methyl)-6-oxo-6,8-dihydro-2H,7H-spiro[furo[2,3-e]isoindole-3,4′-piperidin]-7-yl)piperidine-2,6-dione] | > 100 |  | < 1 |
| O=C1CC[C@H](N2Cc3cc4c(cc3C2=O)OC[C@@H]2CN(C[C@H]3COC5(CCN(c6ccc([C@@H]7c8ccc(O)cc8CC[C@@H]7c7ccccc7)cc6)CC5)C3)CCN42)C(=O)N1 [Compound B398, (S)-3-((S)-3-(((S)-8-(4-((1R,2S)-6-hydroxy-2-phenyl-1,2,3,4-tetrahydronaphthalen-1-yl)phenyl)-1-oxa-8-azaspiro[4.5]decan-3-yl)methyl)-8-oxo-1,2,3,4,4a,5,8,10-octahydro-9H-pyrazino[1′,2′:4,5][1,4]oxazino[2,3-f]isoindol-9-yl)piperidine-2,6-dione] | < 10 | < 1 |  |
| O=C1CCC(N2Cc3c(ccc4c3OC[C@H]3CN(CC(=O)N5CC(Nc6ccc([C@@H]7c8ccc(O)cc8CC[C@@H]7c7ccccc7)cc6)C5)CCN43)C2=O)C(=O)N1 (stereo partly drawn) [Compound B220, 3-((R)-7-(2-(3-((4-((1R,2S)-6-hydroxy-2-phenyl-1,2,3,4-tetrahydronaphthalen-1-yl)phenyl)amino)azetidin-1-yl)-2-oxoethyl)-1-oxo-1,3,5,5a,6,7,8,9-octahydro-2H-pyrazino[1′,2′:4,5][1,4]oxazino[2,3-e]isoindol-2-yl)piperidine-2,6-dione] | > 100 | < 1 |  |
| O=C1CC[C@H](N2Cc3c(ccc4c3OCC43CCN(CC4COC5(CCN(c6ccc([C@@H]7c8ccc(O)cc8CC[C@@H]7c7ccccc7)cc6)CC5)OC4)CC3)C2=O)C(=O)N1 [Compound B337, (S)-3-(1′-((9-(4-((1R,2S)-6-hydroxy-2-phenyl-1,2,3,4-tetrahydronaphthalen-1-yl)phenyl)-1,5-dioxa-9-azaspiro[5.5]undecan-3-yl)methyl)-6-oxo-6,8-dihydro-2H,7H-spiro[furo[2,3-e]isoindole-3,4′-piperidin]-7-yl)piperidine-2,6-dione] | < 10 |  | < 1 |
| O=C1CCC(N2Cc3cc4c(cc3C2=O)OC[C@@H]2CN(C(=O)CN3CCC5(CC3)CCN(c3ncc([C@@H]6c7ccc(O)cc7CC[C@@H]6c6ccccc6)cn3)CC5)CCN42)C(=O)N1 (stereo partly drawn) [Compound B159, 3-((S)-3-(2-(9-(5-((1S,2S)-6-hydroxy-2-phenyl-1,2,3,4-tetrahydronaphthalen-1-yl)pyrimidin-2-yl)-3,9-diazaspiro[5.5]undecan-3-yl)acetyl)-8-oxo-1,2,3,4,4a,5,8,10-octahydro-9H-pyrazino[1′,2′:4,5][1,4]oxazino[2,3-f]isoindol-9-yl)piperidine-2,6-dione] | 10 to 100 | 1 to 10 |  |
| O=C1CC[C@H](N2Cc3c(ccc4c3OCC43CCN(C[C@H]4CCC5(CCN(c6ccc([C@@H]7c8ccc(O)cc8CC[C@@H]7c7ccccc7)cc6)CC5)OC4)CC3)C2=O)C(=O)N1 [Compound B401, (S)-3-(1′-(((R)-9-(4-((1R,2S)-6-hydroxy-2-phenyl-1,2,3,4-tetrahydronaphthalen-1-yl)phenyl)-1-oxa-9-azaspiro[5.5]undecan-3-yl)methyl)-6-oxo-6,8-dihydro-2H,7H-spiro[furo[2,3-e]isoindole-3,4′-piperidin]-7-yl)piperidine-2,6-dione] | < 10 |  | < 1 |
| O=C1CCC(N2Cc3cc4c(cc3C2=O)OC[C@@H]2CN(CC3CCC5(CCN(c6ccc([C@@H]7c8ccc(O)cc8CC[C@@H]7c7ccccc7)cc6)CC5)O3)CCN42)C(=O)N1 (stereo partly drawn) [Compound B177, 3-((4aS)-3-((8-(4-((1R,2S)-6-hydroxy-2-phenyl-1,2,3,4-tetrahydronaphthalen-1-yl)phenyl)-1-oxa-8-azaspiro[4.5]decan-2-yl)methyl)-8-oxo-1,2,3,4,4a,5,8,10-octahydro-9H-pyrazino[1′,2′: 4,5][1,4]oxazino[2,3-f]isoindol-9-yl)piperidine-2,6-dione] | > 100 | 1 to 10 |  |
| O=C1CCC(N2Cc3cc4c(cc3C2=O)OC[C@@H]2CN(CC3COC5(CCN(c6ccc([C@@H]7c8ccc(O)cc8CC[C@@H]7c7ccccc7)cc6)CC5)O3)CCN42)C(=O)N1 (stereo partly drawn) [Compound B239, 3-((4aS)-3-((8-(4-((1R,2S)-6-hydroxy-2-phenyl-1,2,3,4-tetrahydronaphthalen-1-yl)phenyl)-1,4-dioxa-8-azaspiro[4.5]decan-2-yl)methyl)-8-oxo-1,2,3,4,4a,5,8,10-octahydro-9H-pyrazino[1′,2′:4,5][1,4]oxazino[2,3-f]isoindol-9-yl)piperidine-2,6-dione] | 10 to 100 | 1 to 10 |  |

Further lines, with some results ahead:

| DC50 (ER) [nM] | Structure (SMILES) | IC50 ([1]; T47D cell line) [nM] | IC50 [1] [nM] |
| --- | --- | --- | --- |
| < 10 | O=C1CCC(N2Cc3cc4c(cc3C2=O)OC[C@@H]2CN(C(=O)CN3CC5(CCN(c6ccc([C@@H]7c8ccc(O)cc8CC[C@@H]7c7ccccc7)cc6)CC5)C3)CCN42)C(=O)N1 (stereo partly drawn) [Compound B142, 3-((S)-3-(2-(7-(4-((1R,2S)-6-hydroxy-2-phenyl-1,2,3,4-tetrahydronaphthalen-1-yl)phenyl)-2,7-diazaspiro[3.5]nonan-2-yl)acetyl)-8-oxo-1,2,3,4,4a,5,8,10-octahydro-9H-pyrazino[1′,2′: 4,5][1,4]oxazino[2,3-f]isoindol-9-yl)piperidine-2,6-dione] | < 1 |  |
| < 10 | O=C1CCC(N2Cc3cc4c(cc3C2=O)OC[C@@H]2CN(C(=O)[C@H]3CC[C@@H](CN5CC(Nc6ccc([C@@H]7c8ccc(O)cc8CC[C@@H]7c7ccccc7)cc6)C5)CC3)CCN42)C(=O)N1 (stereo partly drawn) [Compound B140, 3-((S)-3-((1R,4S)-4-((3-((4-((1R,2S)-6-hydroxy-2-phenyl-1,2,3,4-tetrahydronaphthalen-1-yl)phenyl)amino)azetidin-1-yl)methyl)cyclohexane-1-carbonyl)-8-oxo-1,2,3,4,4a,5,8,10-octahydro-9H-pyrazino[1′,2′:4,5][1,4]oxazino[2,3-f]isoindol-9-yl)piperidine-2,6-dione] | < 1 |  |
| > 100 | O=C1CC[C@H](N2Cc3cc4c(cc3C2=O)OC[C@H](CN2CCC3(CC2)CCN(c2ccc([C@@H]5c6ccc(O)cc6CC[C@@H]5c5ccccc5)cc2)CC3)O4)C(=O)N1 [Compound B391, 3-((S)-2-((9-(4-((1R,2S)-6-hydroxy-2-phenyl-1,2,3,4-tetrahydronaphthalen-1-yl)phenyl)-3,9-diazaspiro[5.5]undecan-3-yl)methyl)-6-oxo-2,3,6,8-tetrahydro-7H-[1,4]dioxino[2,3-f]isoindol-7-yl)piperidine-2,6-dione] | 1 to 10 |  |
| < 10 | O=C1CCC(N2Cc3c(ccc4c3OCC43CCN(C(=O)CN4CCC5(CC4)CN(c4ccc([C@@H]6c7ccc(O)cc7CC[C@@H]6c6ccccc6)cc4)C5)CC3)C2=O)C(=O)N1 (stereo partly drawn) [Compound B214, 3-(1′-(2-(2-(4-((1R,2S)-6-hydroxy-2-phenyl-1,2,3,4-tetrahydronaphthalen-1-yl)phenyl)-2,7-diazaspiro[3.5]nonan-7-yl)acctyl)-6-oxo-6,8-dihydro-2H,7H-spiro[furo[2,3-e]isoindole-3,4′-piperidin]-7-yl)piperidine-2,6-dione] | < 1 |  |
| 10 to 100 | O=C1CCC(N2Cc3cc4c(cc3C2=O)OC[C@@H]2CN(CC3CCC5(CN(c6ccc([C@@H]7c8ccc(O)cc8CC[C@@H]7c7ccccc7)cc6)C5)OC3)CCN42)C(=O)N1 (stereo partly drawn) [Compound B334, 3-((4aS)-3-((2-(4-((1R,2S)-6-hydroxy-2-phenyl-1,2,3,4-tetrahydronaphthalen-1-yl)phenyl)-5-oxa-2-azaspiro[3.5]nonan-7-yl)methyl)-8-oxo-1,2,3,4,4a,5,8,10-octahydro-9H-pyrazino[1′,2′:4,5][1,4]oxazino[2,3-f]isoindol-9-yl)piperidine-2,6-dione] | < 1 |  |
| < 10 | O=C1CCC(N2C(=O)c3cc4c(cc3C2=O)CN(CC(=O)N2CC3(CC(Nc5ccc([C@@H]6c7ccc(O)cc7CC[C@@H]6c6ccccc6)cc5)C3)C2)C4)C(=O)N1 (stereo partly drawn) [Compound B163, 2-(2,6-dioxopiperidin-3-yl)-6-(2-(6-((4-((1R,2S)-6-hydroxy-2-phenyl-1,2,3,4-tetrahydronaphthalen-1-yl)phenyl)amino)-2-azaspiro[3.3]heptan-2-yl)-2-oxoethyl)-6,7-dihydropyrrolo[3,4-f]isoindole-1,3(2H,5H)-dione] | 1 to 10 |  |
